Source: US11814367B2, “Inhibitors of glycogen synthase 1 (GYS1) and methods of use thereof” (Maze Therapeutics, Inc., priority 2021, dated 2023)
pIC50: −log10 of the molar value.

How the values were obtained:
[1] = molecular target: hGYS1 enzyme (recombinant hGYS1/GN1 protein) (Homo sapiens (Human), UniProt P13807); test: GYS1 coupled enzyme assay (PK/LDH); type: biochemical; details: hGYS1/GN1 50 nM, UDP-Glucose 0.8 mM, G6P 1 mM; geometric mean of at least 2 runs
[2] = test system: hGYS1 enzyme / glycogen synthesis in HeLa cells; test: GYS1 cell based assay (glycogen synthesis, Glucose-glo); set-up: species or system human; details: 24 h incubation, 20 mM glucose, geometric mean of at least 2 runs
Summary of the method: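 HeLa cells starved 24 h in medium containing only 1× Glutamax were plated onto compound in medium with 20 mM glucose (1% DMSO final) for 24 h, 37 °C, 5% CO2. Acid lysates were Tris-quenched, glucoamylase-digested (pH 5.3, 1 h, 37 °C) and read by Glucose-glo luminescence. IC50 came from Hill fits, as geometric mean of ≥2 runs.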

[3] = molecular target: hGYS2 enzyme (recombinant hGYS2/GN1 protein) (Homo sapiens (Human), UniProt P54840); test: GYS2 coupled enzyme assay (PK/LDH); type: biochemical; details: geometric mean of at least 2 assay runs on separate days, read-out: Avg_IC50
Sequence of hGYS2 enzyme (recombinant hGYS2/GN1 protein) (P54840 whole entry): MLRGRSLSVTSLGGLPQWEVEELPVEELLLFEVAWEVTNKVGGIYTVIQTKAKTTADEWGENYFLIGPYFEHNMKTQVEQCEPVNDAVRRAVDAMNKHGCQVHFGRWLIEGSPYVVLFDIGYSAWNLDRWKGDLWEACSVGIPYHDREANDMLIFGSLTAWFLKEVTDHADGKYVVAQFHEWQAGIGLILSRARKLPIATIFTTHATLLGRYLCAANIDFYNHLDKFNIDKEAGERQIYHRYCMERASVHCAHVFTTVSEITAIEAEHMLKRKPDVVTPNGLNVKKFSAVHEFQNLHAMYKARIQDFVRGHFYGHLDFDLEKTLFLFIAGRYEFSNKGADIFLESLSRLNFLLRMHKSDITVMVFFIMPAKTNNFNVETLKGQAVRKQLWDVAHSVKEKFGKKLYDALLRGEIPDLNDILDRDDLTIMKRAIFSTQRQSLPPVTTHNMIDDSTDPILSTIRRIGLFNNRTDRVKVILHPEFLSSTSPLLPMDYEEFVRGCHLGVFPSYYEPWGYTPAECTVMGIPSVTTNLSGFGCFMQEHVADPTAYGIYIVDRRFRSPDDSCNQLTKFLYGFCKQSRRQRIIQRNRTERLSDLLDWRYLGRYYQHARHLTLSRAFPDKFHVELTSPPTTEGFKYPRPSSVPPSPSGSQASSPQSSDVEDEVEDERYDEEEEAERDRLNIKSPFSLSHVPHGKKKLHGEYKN
Sequence of hGYS2 enzyme (recombinant hGYS2/GN1 protein) (P46976 whole entry partner): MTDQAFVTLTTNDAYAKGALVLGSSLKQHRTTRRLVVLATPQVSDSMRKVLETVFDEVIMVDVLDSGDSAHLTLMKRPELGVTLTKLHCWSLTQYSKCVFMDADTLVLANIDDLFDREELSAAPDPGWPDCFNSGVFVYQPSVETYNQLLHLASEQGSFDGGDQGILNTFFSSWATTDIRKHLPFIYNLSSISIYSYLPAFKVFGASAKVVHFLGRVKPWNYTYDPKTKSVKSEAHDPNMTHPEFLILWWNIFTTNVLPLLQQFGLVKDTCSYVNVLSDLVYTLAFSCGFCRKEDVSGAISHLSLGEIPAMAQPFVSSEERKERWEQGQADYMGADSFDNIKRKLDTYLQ
Summary of the method: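 Read-out: NADH loss at 340 nm, read each minute for 10 min, slope normalized to controls, duplicate % inhibition fit to Hill (0–100). Enzyme: 200 nM hGYS2/GN1; substrate 2 mM UDP-glucose plus 0.2% glycogen and 2 mM G6P; pH 7.5 Tris, 2.5% DMSO.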

Sequence of hGYS1 enzyme (recombinant hGYS1/GN1 protein) (P13807 whole entry): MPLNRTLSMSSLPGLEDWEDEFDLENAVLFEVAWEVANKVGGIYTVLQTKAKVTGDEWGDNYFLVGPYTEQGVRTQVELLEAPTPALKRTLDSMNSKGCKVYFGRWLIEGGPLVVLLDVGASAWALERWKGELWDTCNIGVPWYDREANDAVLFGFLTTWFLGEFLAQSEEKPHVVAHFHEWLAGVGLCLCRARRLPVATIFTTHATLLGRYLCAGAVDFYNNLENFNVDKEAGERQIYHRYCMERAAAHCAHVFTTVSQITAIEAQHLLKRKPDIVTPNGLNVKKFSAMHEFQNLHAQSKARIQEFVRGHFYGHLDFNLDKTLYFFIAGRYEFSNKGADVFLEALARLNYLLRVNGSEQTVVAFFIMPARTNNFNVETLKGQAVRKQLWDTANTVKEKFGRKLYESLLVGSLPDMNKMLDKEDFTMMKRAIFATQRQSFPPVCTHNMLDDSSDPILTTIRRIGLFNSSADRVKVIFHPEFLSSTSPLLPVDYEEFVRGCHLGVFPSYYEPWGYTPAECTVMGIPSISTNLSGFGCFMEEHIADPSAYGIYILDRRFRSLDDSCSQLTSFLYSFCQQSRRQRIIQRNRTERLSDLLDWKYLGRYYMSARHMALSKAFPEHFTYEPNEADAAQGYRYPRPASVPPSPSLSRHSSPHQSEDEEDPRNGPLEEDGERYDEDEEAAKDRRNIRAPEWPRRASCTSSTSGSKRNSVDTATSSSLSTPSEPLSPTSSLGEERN
Sequence of hGYS1 enzyme (recombinant hGYS1/GN1 protein) (P46976 whole entry partner): as the sequence (P46976 whole entry partner) above

| pIC50 [1] | pIC50 ([2]; Homo sapiens, HeLa, 24 h) | pIC50 [3] | pIC50 [2] | Molecule |
| --- | --- | --- | --- | --- |
| 6.43 | < 5.25 | < 4.00 |  | O=C(NC(c1ccccc1)c1ccc(C2CC2)cn1)[C@@H]1C[C@@H](F)CN1C(=O)Cc1cnn[nH]1 (single isomer, unassigned) [Compound 497, (2S,4R)-1-(2-(1H-1,2,3-triazol-5-yl)acetyl)-N—((S) or (R)-(5-cyclopropylpyridin-2-yl)(phenyl)methyl)-4-fluoropyrrolidine-2-carboxamide] |
| 7.57 | 6.38 |  |  | Cn1ncc(C(F)F)c1CC(=O)N1C[C@H](F)C[C@H]1C(=O)N[C@@H](c1ccccc1)c1ccc(C2CC2)c(F)n1 [Compound 754, (2S,4R)-N-[(S)-(5-cyclopropyl-6-fluoropyridin-2-yl)(phenyl)methyl]-1-{2-[4-(difluoromethyl)-1-methyl-1H-pyrazol-5-yl]acetyl}-4-fluoropyrrolidine-2-carboxamide] |
| 6.99 | 5.97 |  |  | O=C(N[C@@H](c1ccccc1)c1ccc(C2CC2)c(F)n1)[C@@H]1C[C@@H](F)CN1C(=O)Cn1nnnc1C(F)(F)F [Compound 755, (2S,4R)-N-[(S)-(5-cyclopropyl-6-fluoropyridin-2-yl)(phenyl)methyl]-4-fluoro-1-{2-[5-(trifluoromethyl)-1H-1,2,3,4-tetrazol-1-yl]acetyl}pyrrolidine-2-carboxamide] |
| 7.64 | 5.77 |  |  | O=C(N[C@@H](c1ccccc1)c1ccc(C2CC2)c(F)n1)[C@@H]1C[C@@H](F)CN1C(=O)Cc1[nH]nnc1C(F)F [Compound 756, (2S,4R)-N-[(S)-(5-cyclopropyl-6-fluoropyridin-2-yl)(phenyl)methyl]-1-{2-[4-(difluoromethyl)-1H-1,2,3-triazol-5-yl]acetyl}-4-fluoropyrrolidine-2-carboxamide] |
| 7.54 | 6.40 |  |  | Cn1cc(C(F)F)c(CC(=O)N2C[C@H](F)C[C@H]2C(=O)N[C@@H](c2ccccc2)c2ccc(C3CC3)c(F)n2)n1 [Compound 757, (2S,4R)-N-[(S)-(5-cyclopropyl-6-fluoropyridin-2-yl)(phenyl)methyl]-1-{2-[4-(difluoromethyl)-1-methyl-1H-pyrazol-3-yl]acetyl}-4-fluoropyrrolidine-2-carboxamide] |
| 7.49 | 5.94 |  |  | O=C(N[C@@H](c1ccccc1)c1ccc(C2CC2)c(F)n1)[C@@H]1C[C@@H](F)CN1C(=O)Cn1nncc1N1CC(F)(F)C1 [Compound 758, (2S,4R)-N-[(S)-(5-cyclopropyl-6-fluoropyridin-2-yl)(phenyl)methyl]-1-{2-[5-(3,3-difluoroazetidin-1-yl)-1H-1,2,3-triazol-1-yl]acetyl}-4-fluoropyrrolidine-2-carboxamide] |
| 7.74 | 6.23 |  |  | O=C(N[C@@H](c1ccccc1)c1ccc(C2CC2)c(F)n1)[C@@H]1C[C@@H](F)CN1C(=O)Cn1cnnc1C(F)F [Compound 759, (2S,4R)-N-[(S)-(5-cyclopropyl-6-fluoropyridin-2-yl)(phenyl)methyl]-1-{2-[3-(difluoromethyl)-4H-1,2,4-triazol-4-yl]acetyl}-4-fluoropyrrolidine-2-carboxamide] |
| 7.77 | 6.43 |  |  | O=C(N[C@@H](c1ccccc1)c1ccc(C2CC2)c(F)n1)[C@@H]1C[C@@H](F)CN1C(=O)Cn1nccc1C(F)(F)F [Compound 760, (2S,4R)-N-[(S)-(5-cyclopropyl-6-fluoropyridin-2-yl)(phenyl)methyl]-4-fluoro-1-{2-[5-(trifluoromethyl)-1H-pyrazol-1-yl]acetyl}pyrrolidine-2-carboxamide] |
| 5.97 | < 4.76 |  |  | CC(C)c1ccc([C@@H](NC(=O)[C@@H]2C[C@@H](F)CN2C(=O)Cc2[nH]nnc2N(C)C)c2ccccc2)cc1F [Compound 775, (2S,4R)-1-{2-[4-(dimethylamino)-1H-1,2,3-triazol-5-yl]acetyl}-4-fluoro-N-[(S)-[3-fluoro-4-(propan-2-yl)phenyl](phenyl)methyl] pyrrolidine-2-carboxamide] |
|  | 6.48 | < 4.00 |  | CC(C)c1ccc([C@@H](NC(=O)[C@@H]2C[C@@H](F)CN2C(=O)Cc2nn(C)c(=O)n2C)c2ccccc2)nc1F [Compound 779, (2S,4R)-1-[2-(1,4-dimethyl-5-oxo-4,5-dihydro-1H-1,2,4-triazol-3-yl)acetyl]-4-fluoro-N-[(S)-[6-fluoro-5-(propan-2-yl)pyridin-2-yl](phenyl)methyl] pyrrolidine-2-carboxamide] |
| 8.30 | 6.96 |  |  | CCn1cc(CC(=O)N2C[C@H](F)C[C@H]2C(=O)N[C@@H](c2ccccc2)c2ccc(C(C)C)c(F)n2)cc(C)c1=O [Compound 796, (2S,4R)-1-[2-(1-ethyl-5-methyl-6-oxo-1,6-dihydropyridin-3-yl)acetyl]-4-fluoro-N-[(S)-[6-fluoro-5-(propan-2-yl)pyridin-2-yl](phenyl)methyl] pyrrolidine-2-carboxamide] |
| 7.80 | 6.54 |  |  | CCn1cc(CC(=O)N2C[C@H](F)C[C@H]2C(=O)N[C@@H](c2ccccc2)c2ccc(C(C)C)c(F)n2)ncc1=O [Compound 797, (2S,4R)-1-[2-(4-ethyl-5-oxo-4,5-dihydropyrazin-2-yl)acetyl]-4-fluoro-N-[(S)-[6-fluoro-5-(propan-2-yl)pyridin-2-yl](phenyl)methyl] pyrrolidine-2-carboxamide] |
| 7.92 | 6.66 |  |  | CCOc1ncc(CC(=O)N2C[C@H](F)C[C@H]2C(=O)N[C@@H](c2ccccc2)c2ccc(C(C)C)c(F)n2)cc1C [Compound 798, (2S,4R)-1-[2-(6-ethoxy-5-methylpyridin-3-yl)acetyl]-4-fluoro-N-[(S)-[6-fluoro-5-(propan-2-yl)pyridin-2-yl](phenyl)methyl] pyrrolidine-2-carboxamide] |
| 8.40 | 7.00 |  |  | CCn1cc(C)cc(CC(=O)N2C[C@H](F)C[C@H]2C(=O)N[C@@H](c2ccccc2)c2ccc(C(C)C)c(F)n2)c1=O [Compound 799, (2S,4R)-1-[2-(1-ethyl-5-methyl-2-oxo-1,2-dihydropyridin-3-yl)acetyl]-4-fluoro-N-[(S)-[6-fluoro-5-(propan-2-yl)pyridin-2-yl](phenyl)methyl] pyrrolidine-2-carboxamide] |
| 8.05 | 6.43 |  |  | CC(C)c1ccc([C@@H](NC(=O)[C@@H]2C[C@@H](F)CN2C(=O)Cc2c[nH]c(=O)cn2)c2ccccc2)nc1F [Compound 802, (2S,4R)-4-fluoro-N-[(S)-[6-fluoro-5-(propan-2-yl)pyridin-2-yl](phenyl)methyl]-1-[2-(5-oxo-4,5-dihydropyrazin-2-yl)acetyl]pyrrolidine-2-carboxamide] |
| 8.40 | 7.10 |  |  | Cc1cc(C(F)F)n(CC(=O)N2C[C@H](F)C[C@H]2C(=O)N[C@@H](c2ccccc2)c2ccc(C(C)C)c(F)n2)n1 [Compound 803, (2S,4R)-1-{2-[5-(difluoromethyl)-3-methyl-1H-pyrazol-1-yl]acetyl}-4-fluoro-N-[(S)-[6-fluoro-5-(propan-2-yl)pyridin-2-yl](phenyl)methyl] pyrrolidine-2-carboxamide] |
| 7.77 | 6.85 |  |  | Cc1cc(C(F)F)nn1CC(=O)N1C[C@H](F)C[C@H]1C(=O)N[C@@H](c1ccccc1)c1ccc(C(C)C)c(F)n1 [Compound 804, (2S,4R)-1-{2-[3-(difluoromethyl)-5-methyl-1H-pyrazol-1-yl]acetyl}-4-fluoro-N-[(S)-[6-fluoro-5-(propan-2-yl)pyridin-2-yl](phenyl)methyl] pyrrolidine-2-carboxamide] |
| 7.92 | 6.55 |  |  | CCN(CC)c1cnnn1CC(=O)N1C[C@H](F)C[C@H]1C(=O)N[C@@H](c1ccccc1)c1ccc(C(C)C)c(F)n1 [Compound 805, (2S,4R)-1-{2-[5-(diethylamino)-1H-1,2,3-triazol-1-yl]acetyl}-4-fluoro-N-[(S)-[6-fluoro-5-(propan-2-yl)pyridin-2-yl](phenyl)methyl] pyrrolidine-2-carboxamide] |
| 8.22 | 7.05 |  |  | CCn1ccnc(CC(=O)N2C[C@H](F)C[C@H]2C(=O)N[C@@H](c2ccccc2)c2ccc(C(C)C)c(F)n2)c1=O [Compound 806, (2S,4R)-1-[2-(4-ethyl-3-oxo-3,4-dihydropyrazin-2-yl)acetyl]-4-fluoro-N-[(S)-[6-fluoro-5-(propan-2-yl)pyridin-2-yl](phenyl)methyl] pyrrolidine-2-carboxamide] |
| 7.72 | 6.35 |  |  | CC(C)c1ccc([C@@H](NC(=O)[C@@H]2C[C@@H](F)CN2C(=O)Cn2nncc2N2CC(F)(F)C2)c2ccccc2)nc1F [Compound 807, (2S,4R)-1-{2-[5-(3,3-difluoroazetidin-1-yl)-1H-1,2,3-triazol-1-yl]acetyl}-4-fluoro-N-[(S)-[6-fluoro-5-(propan-2-yl)pyridin-2-yl](phenyl)methyl] pyrrolidine-2-carboxamide] |
| 7.47 |  |  | 5.92 | (2S,4R)-4-fluoro- N-[(S) or (R)-[6- fluoro-5-(propan- 2-yl)pyridin-2- yl][3-(1,2-oxazol-5- yl)phenyl]methyl]- 1-[2-(1H-1,2,3- triazol-5- yl)acetyl]pyrrolidine- 2-carboxamide [Compound 694] |
